Results: patent US20120220662A1, “PHYTOCEUTICAL COMPOSITIONS FOR PETS” (BIOKAB, S.A. DE C.V., priority 2009, published 2012)

Assay: Accelerated Oxidization Tests (anti-oxidizing ability, peroxides)
Conditions: 200 ppm (extract: Nejayote 1000 ppm + 200 ppm Pure Ferulic Acid)
Experimental: The tests of anti-oxidizing ability of the compositions in examples 1, 2 and 3. Said anti-oxidizing ability is the ability which conveys, to a considerable extent, the phytoceutical properties of our composition.
The determination was performed by AOAC Official Method 965.33/(AOCS Method Cd 8-53) 2000 AOAC International.

| Compound | Accelerated Oxidization Tests (peroxides) (Time 0 Hs) | Accelerated Oxidization Tests (peroxides) (Time 4 Hs) | Accelerated Oxidization Tests (peroxides) (Time 8 Hs) | Accelerated Oxidization Tests (peroxides) (Time 16 Hs) | Accelerated Oxidization Tests (peroxides) (Time 24 Hs) | Accelerated Oxidization Tests (peroxides) (Time 32 Hs) | Accelerated Oxidization Tests (peroxides) (Time 40 Hs) | Accelerated Oxidization Tests (peroxides) (Time 48 Hs) | Accelerated Oxidization Tests (peroxides) (Time 56 Hs) | Accelerated Oxidization Tests (peroxides) (Time 64 Hs) | Accelerated Oxidization Tests (peroxides) (Time 72 Hs) | Accelerated Oxidization Tests (peroxides) (Time 80 Hs) | Accelerated Oxidization Tests (peroxides) (Time 88 Hs) | Accelerated Oxidization Tests (peroxides) (Time 96 Hs) | Accelerated Oxidization Tests (peroxides) (Time 104 Hs) | Accelerated Oxidization Tests (peroxides) (Time 112 Hs) | Accelerated Oxidization Tests (peroxides) (Time 120 Hs) | Accelerated Oxidization Tests (peroxides) (Time 128 Hs) |
| --- | --- | --- | --- | --- | --- | --- | --- | --- | --- | --- | --- | --- | --- | --- | --- | --- | --- | --- |
| COc1cc(/C=C/C(=O)O)ccc1O [Pure Ferulic Acid, ferulic acid] | 0.00 Meq/Kg | 0.00 Meq/Kg | 0.00 Meq/Kg | 0.00 Meq/Kg | 0.00 Meq/Kg | 3.17 Meq/Kg | 4.19 Meq/Kg | 7.25 Meq/Kg | 13.61 Meq/Kg | 20.18 Meq/Kg | 21.12 Meq/Kg | 24.19 Meq/Kg | 31.16 Meq/Kg | 36.19 Meq/Kg | 51.14 Meq/Kg | 31.05 Meq/Kg | 21.05 Meq/Kg | 0.00 Meq/Kg |
| COc1ccc(O)c(C(C)(C)C)c1 [pure BHA, Butylated Hydroxy Anisole] | 0.00 Meq/Kg | 0.00 Meq/Kg | 0.00 Meq/Kg | 0.00 Meq/Kg | 0.00 Meq/Kg | 0.00 Meq/Kg | 0.00 Meq/Kg | 0.60 Meq/Kg | 0.68 Meq/Kg | 1.09 Meq/Kg | 0.91 Meq/Kg | 1.89 Meq/Kg | 8.03 Meq/Kg | 41.94 Meq/Kg | 45.11 Meq/Kg | 36.12 Meq/Kg | 24.10 Meq/Kg | 6.16 Meq/Kg |
